Assay results as given in PMC6511888, “Synthesis, Biological Evaluation, and Molecular Modeling Studies of New Thiadiazole Derivatives as Potent P2X7 Receptor Inhibitors” (Frontiers in Chemistry, 2019).
Like-named read-outs stand apart in the source and are kept apart here.

How the values were obtained:
[1] = test system: P2X7R-mediated IL-1β release; test: ATP-induced IL-1β release (ELISA) in differentiated THP-1 cells; type: cell-based, human
Experimental: P2X7R-mediated IL-1β release was obtained from differentiated THP-1 cells stimulated with lipopolysaccharide (LPS) before ATP addition. […] THP-1 cells were differentiated with 500 ng/ml phorbol 12-myristate 13-acetate (PMA) and 10 ng/ml IFN-γ cotreatment for 24 h. These cells were activated with 25 ng/ml LPS for 4 h. […] P2X7R antagonists (BBG and A740003) and thiadiazole analogs were added 30 min before the ATP stimulus. The supernatants were collected, centrifuged (1,000 rpm for 5 min at 4°C), and stored at −70°C after LPS incubation. IL-1β was quantified using a standard kit (ABCAM, Cambridge).

human P2X7R = target: T1, human P2X7R (Homo sapiens, UniProt Q99572); test: Dye uptake assay (ethidium bromide) in HEK-293 cells transfected with hP2X7R; type: cell-based; details: for IC50: ethidium uptake assay, HEK-293 cells transfected with human P2X7R, mean ± SD
T1 construct: expressed in transfected cells; host or cells: HEK-293
T1 sequence (Q99572 1-595): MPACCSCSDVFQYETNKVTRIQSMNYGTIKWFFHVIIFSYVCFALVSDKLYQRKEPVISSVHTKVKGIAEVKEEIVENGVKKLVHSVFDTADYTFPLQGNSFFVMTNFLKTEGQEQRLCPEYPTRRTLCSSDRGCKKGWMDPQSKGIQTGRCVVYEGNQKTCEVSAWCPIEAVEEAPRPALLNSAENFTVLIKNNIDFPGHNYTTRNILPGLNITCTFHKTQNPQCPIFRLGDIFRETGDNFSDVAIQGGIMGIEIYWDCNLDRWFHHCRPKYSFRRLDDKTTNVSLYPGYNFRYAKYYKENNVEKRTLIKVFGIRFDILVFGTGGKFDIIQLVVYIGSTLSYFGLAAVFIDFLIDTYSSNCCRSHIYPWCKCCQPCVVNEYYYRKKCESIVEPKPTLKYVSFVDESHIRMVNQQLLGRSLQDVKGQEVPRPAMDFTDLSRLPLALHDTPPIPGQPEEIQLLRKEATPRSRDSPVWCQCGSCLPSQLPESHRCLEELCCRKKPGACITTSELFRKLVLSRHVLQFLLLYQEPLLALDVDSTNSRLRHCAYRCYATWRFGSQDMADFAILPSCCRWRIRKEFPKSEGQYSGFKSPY
Experimental: HEK-293 cells expressing human P2X7R were maintained in Dulbecco's modified Eagle's medium (DMEM; Sigma-Aldrich) supplemented with 10% fetal bovine serum (FBS; Prolab, Br) and anti-biotics (50 U/ml penicillin and […] streptomycin) in a humidified 5% CO2 atmosphere at 37°C (Faria et al., [2018]). A total of 5 × 10^5 cells were plated at 37°C in a humidified 5% CO2 atmosphere for 24 h in a 96-well plate for dye uptake or IL-1β release assays.
HEK-293 cells transfected with hP2X7R and mouse peritoneal macrophages were plated at 2.5 × 10^6 or 5 × 10^5 cells/ml, respectively, in 96-well culture plates containing DMEM with 10% FBS and anti-biotics (50 U/ml penicillin and […] streptomycin) in a humidified 5% CO2 atmosphere at 37°C for 24 h (Faria et al., [2018]).
P2X7R antagonist and thiadiazole analogs (1 nM to 0.5 mM) were incubated for 5 min before ATP (5 mM) treatment for 20 min. In the last 5 min of ATP incubation, propidium iodide for macrophages (PI; 750 nM) or ethidium bromide (EB; 25 μM) for HEK-293 cells was added to all wells. PI dye was excited at a wavelength of 530 nm, and its fluorescence emission was read at a wavelength of 590 nm using an M5 plate reader (Molecular Devices). EB dye was excited at a wavelength of 530 nm and emitted at a wavelength of 620 nm.

[2] = Distribution coefficient (Log D) in octanol/PBS pH 7.4; type: physicochemical; details: average of three experiments, read-out: Log D7.4
Experimental: Octanol and Phosphate-buffered saline (PBS) solution at a ratio of 1:1 (v/v) at pH 7.4 was shaken mechanically for 24 h to reach presaturation. Crescent octanol volumes (100–400 μl) were added to PBS (396 μl) and thiadiazole 9f (25 mM) in a volume of 4 μl. This solution was shaken for 2 h and centrifuged (3,000 rpm) for 5 min, and the PBS layer was collected 1 h later. To measure the PBS layer absorbance, a 100-μl aliquot (396 μl of PBS containing 4 μl of 9f + 400 μl of acetonitrile) was partitioned with acetonitrile (100 μl; Faria et al., [2018]).

Caco-2 cell permeability = type: in vitro ADME; design: Papp at 60 min: dose or concentration left out as unconfirmed; details: human, Caco-2, pH 7.4; apical to basolateral (A - B); mean ± standard error of three experiments; read-out: Caco-2 apparent permeability (Papp)
Experimental: Corning® Costar® Transwell plates (Sigma-Aldrich, St. Louis, MO, USA) were used for seeding Caco-2 cells at 3 × 10^5 cells/well bathed with DMEM supplemented with 10% FSB according to Faria and collaborator in 2018 (Faria et al., [2018]). This culture was maintained for up to 21 days in a humidified incubator at 37°C and 5% CO2. Thiadiazole analog, vinblastine (poor permeability control), and propranolol (high permeability control) stock solutions, all at a concentration of 100 mM, were prepared in Hanks' balanced salt solution (HBSS) containing 25 mM HEPES at pH 7.4 with 0.5% (v/v) DMSO. Transport buffer (0.3 ml) was added to each well to equilibrate the cells with the transport buffer. A 24-well enhanced recovery plate containing 1 ml of transport buffer (pH 7.4) was substituted for the feeder tray. The transport buffer in the apical wells was removed, and 0.3 ml of a solution containing thiadiazoles 9b, 9c, 9f, or 11c; vinblastine; or propranolol was added. Then, the cells were replaced for incubation for 60 min. Lucifer yellow concentrations in the donor and acceptor wells were measured in the last of this incubation. Lucifer yellow was measured using an M5 plate reader ([…]) at an excitation wavelength of 485 nm and an emission wavelength of 530 nm.

[3] = Stability in mouse liver microsomes; type: in vitro ADME; details: male, pH 7.4, read-out: LM stability mouse (CLint)
Experimental: Thiadiazole 9f stability was evaluated in liver microsomes from male mice and humans according to Faria et al. in 2018 (Faria et al., [2018]). Both solutions contained a final protein concentration of 0.5 mg/ml (0.1 M phosphate buffer) at pH 7.4. Microsomes were preincubated with 9f (1 μM) and DMSO ([…]) at 37°C before NADPH (1 mM) addition. A control for the reaction was a buffer containing 0.1 M phosphate at pH 7.4 in a final volume of 50 μl. Diazepam and verapamil were used as positive controls for mice and humans, respectively. Both types of microsomes were treated with 9f for 0, 5, 15, 30, and 45 min and the negative control [minus Nicotinamide adenine dinucleotide phosphate (NADPH)] for 45 min. To stop the reactions, methanol (50 μl) was added at the appropriate time points, and the samples were centrifuged (1,640 × g) for 20 min at 4°C to […] protein precipitation.
In vitro intrinsic clearance (CLint mic) for the metabolism of 9f in mouse and human liver microsomes was calculated using the equations below:
Half-life (t1/2) (minutes) = 0.693/k (1)
V(μL/mg) = volume of the incubation solution (μl)/protein in the incubation solution (mg) (2)
Intrinsic clearance (CLint) (μl/minutes/mg protein) = V × 0.693/t1/2 (3) according to the manufacturer's instructions.

[4] = ATP-induced IL-1β release, LPS/IFN-differentiated human THP-1 cells, read-out: THP-1 cells IC50
[5] = dye uptake, HEK-293-transfected cells

IC50 [1, 4] | IC50 (human P2X7R) | logD [2] | Papp at 60 min (Caco-2 cell permeability) | microsomal CLint at 1 μM [3] | melting point | IC50 ([1]; Homo sapiens, THP-1 cells, read-out: IC50, IL-1β release) | Potency relative to A740003 (times greater) (human P2X7R; [5]) | Potency relative to BBG (times greater) (human P2X7R; [5]) | SMILES | Potency relative to BBG (times more potent) ([1]; IL-1β release, THP-1 cells) | Potency relative to A740003 ([1]; IL-1β release, THP-1 cells)
0.298 ± 0.008 µM | 0.041 ± 0.008 µM | -1.2 ± 0.1 | 50.1 ± 1.1 ×10⁻⁶ cm/s | 14.3 µL/min/mg | 250 to 251 °C |  |  |  | N#Cc1cnn(-c2nnc(-c3ccccc3Cl)s2)c1N [Compound 9b] | approximately 10 times | 
0.019 ± 0.003 µM | 0.011 ± 0.001 µM | -3.7 ± 0.2 | 73.4 ± 3.3 ×10⁻⁶ cm/s | 26.7 µL/min/mg | 190 to 191 °C | 0.02 to 0.3 µM | eight | more than 50 times | CCOC(=O)c1cnn(-c2nnc(-c3ccccc3Cl)s2)c1N [Compound 9f] | more than 20 times | > 10 times
0.223 ± 0.018 µM | 0.097 ± 0.018 µM |  |  |  |  |  |  |  | COc1ccc(CC(=O)NC(NC(=NC#N)Nc2cccc3ncccc23)C(C)(C)C)cc1OC (stereo not shown) [Compound A740003, N-(1-{[(cyanoimino)(5-quinolinylamino)methyl]amino}-2,2-dimethylpropyl)-2-(3,4-dimethoxyphenyl)acetamide] |  | 
0.279 ± 0.035 µM | 0.056 ± 0.002 µM | -0.9 ± 0.1 | 56.1 ± 2.1 ×10⁻⁶ cm/s | 11.6 µL/min/mg | 262 to 263 °C |  |  |  | N#Cc1cnn(-c2nnc(-c3ccc(F)cc3)s2)c1N [Compound 9c] | approximately 10 times | 
0.24 ± 0.017 µM | 0.082 ± 0.005 µM | -4.2 ± 0.4 | 77.9 ± 1 ×10⁻⁶ cm/s | 38.5 µL/min/mg | 174 °C |  |  |  | Cc1cc(C)n(-c2nnc(-c3ccc(F)cc3)s2)n1 [Compound 11c, 2-(3,5-dimethyl-1H-pyrazol-1-yl)-5-(4-fluorophenyl)-1,3,4-thiadiazole] | approximately 10 times | 
